Test results reported in ChEMBL document CHEMBL1201862, “PubChem BioAssay data set” (2004).
Calls of active or inactive are those of the source.

What was measured:
[1] = viability of HCT116 lacking mutant beta-catenin – cell-based, human colon tumor, dose response (AID 1045); assay type: functional;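 further: HCT116 colon tumor cells with beta catenin knocked out; cells exposed to compound for 60 hours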
[2] = viability loss in HeLa cells – cytotoxicity control for MgcRacGAP inhibitor project, dose response (AID 624300); assay type: functional
[3] = molecular target: Glutathione-S-transferase (Schistosoma japonicum, UniProt Q26513); assay: GST-antibody interaction or FRET quenching – biochemical, TR-FRET, artefact control for Vif-APOBEC3G degradation inhibitor project, dose response (AID 1117362); assay type: functional
Sequence of Glutathione-S-transferase (Q26513 whole entry): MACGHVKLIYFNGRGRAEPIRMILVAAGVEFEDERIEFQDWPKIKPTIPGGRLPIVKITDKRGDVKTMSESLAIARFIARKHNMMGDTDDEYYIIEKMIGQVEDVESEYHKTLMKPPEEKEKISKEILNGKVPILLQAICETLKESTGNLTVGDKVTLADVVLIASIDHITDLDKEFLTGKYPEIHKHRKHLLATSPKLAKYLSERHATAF

[4] = molecular target: T1, Rac GTPase-activating protein 1 (Homo sapiens, UniProt Q9H0H5); assay: blockers of MgcRacGAP-driven Rac1 GTP hydrolysis – biochemical, ADP Hunter fluorescence, primary and confirmatory, confirmation (AID 624330); assay type: functional
T1 sequence (Q9H0H5 whole entry): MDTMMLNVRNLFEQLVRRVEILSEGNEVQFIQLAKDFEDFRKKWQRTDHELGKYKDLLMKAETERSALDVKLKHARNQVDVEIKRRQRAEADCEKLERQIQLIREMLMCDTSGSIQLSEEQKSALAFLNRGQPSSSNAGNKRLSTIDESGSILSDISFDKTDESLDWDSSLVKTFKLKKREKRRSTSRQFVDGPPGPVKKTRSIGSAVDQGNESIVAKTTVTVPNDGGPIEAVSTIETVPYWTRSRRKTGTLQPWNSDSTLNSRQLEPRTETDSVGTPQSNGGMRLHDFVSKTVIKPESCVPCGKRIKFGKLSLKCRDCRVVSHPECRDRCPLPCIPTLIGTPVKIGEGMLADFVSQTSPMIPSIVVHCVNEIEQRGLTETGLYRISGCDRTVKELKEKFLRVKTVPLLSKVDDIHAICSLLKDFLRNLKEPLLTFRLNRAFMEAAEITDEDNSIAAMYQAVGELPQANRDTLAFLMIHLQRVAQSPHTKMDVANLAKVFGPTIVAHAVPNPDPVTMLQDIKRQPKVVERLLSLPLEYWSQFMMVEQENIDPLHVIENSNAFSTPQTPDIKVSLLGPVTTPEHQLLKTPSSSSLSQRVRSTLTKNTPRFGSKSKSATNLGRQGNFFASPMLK

[5] = mitochondrial function rescue without frataxin homolog – Friedreich's ataxia, plus single-dose screen, dose response (AID 1465); assay type: functional;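 further: yeast depleted of Yfh1p frataxin homolog grown on glycerol needing respiration; WST-1 tetrazolium dye reduction as measure of cellular dehydrogenase metabolic activity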
Nonstructural protein 1 = Nonstructural protein 1 (Influenza A virus, UniProt Q194T2); assay type: functional, Influenza A virus (A/California/07/2009(H1N1))
Sequence of Nonstructural protein 1 (Q194T2 whole entry): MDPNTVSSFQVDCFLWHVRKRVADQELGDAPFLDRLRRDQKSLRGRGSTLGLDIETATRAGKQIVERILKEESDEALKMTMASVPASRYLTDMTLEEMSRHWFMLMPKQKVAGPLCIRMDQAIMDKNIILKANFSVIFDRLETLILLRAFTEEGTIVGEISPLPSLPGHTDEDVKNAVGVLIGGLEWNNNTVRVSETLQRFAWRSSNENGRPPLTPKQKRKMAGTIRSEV

[6] = viability of PTEN-deleted HCT116 cells – cell-based, HCT116 PTEN knockout, dose response (AID 1047); assay type: functional;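 further: HCT116 colon tumor cells with PTEN knocked out; cells exposed to compound for 60 hours before readout; potency for loss of cell viability measured by luminescence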
[7] = viability loss in THP-1 monocytes – THP-1 cells, cytotoxicity control for Vif-APOBEC3G degradation inhibitor project, dose response (AID 1117359); assay type: functional; details: THP-1
[8] = growth inhibition of yeast DHODH-expressing 3D7 parasites – SYBR Green, dry powder samples, dose response (AID 1159570); assay type: functional, cell-based;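 further: parasite growth measured after 72 hours of compound exposure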
[9] = Dd2 malaria parasite growth inhibition potency – SYBR Green, dry powder samples, dose response (AID 1159566); assay type: functional, cell-based;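 further: potency for growth inhibition with lower SYBR green DNA signal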
[10] = toxicity to human HepG2 hepatoma cells – cell-based, plate reader, dry powder samples, cytotoxicity control, dose response (AID 1159569); assay type: functional;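 further: inhibitor potency with signal falling toward the positive control level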
[11] = toxicity to human hepatoma HepG2 cells – cell-based, cherry-picked samples, cytotoxicity control, dose response (AID 1159577); assay type: functional
[12] = growth inhibition of PfATP4-mutant resistant parasites – NITD609-resistant line, SYBR Green, dry powder, dose response (AID 1159571); assay type: functional, cell-based;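 further: parasites synchronized at ring stage by sorbitol before testing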
[13] = Plasmodium falciparum Dd2 Sybr green parasite growth Measured in Cell-Based and Microorganism Combination System Using Plate Reader - 2153-01_Inhibitor_Dose_DryPowder_Activity_Set3.; assay type: functional
[14] = P. falciparum Dd2 growth inhibitors, dose response, SYBR Green, cherry-picked samples (AID 1159567); assay type: functional, cell-based
[15] = molecular target: RNA-editing ligase 1, mitochondrial (Trypanosoma brucei brucei, UniProt P86926); assay: inhibition of trypanosome RNA editing ligase – biochemical, fluorescence, Trypanosoma brucei, dose response (AID 1117295); assay type: functional
Sequence of RNA-editing ligase 1, mitochondrial (P86926 whole entry): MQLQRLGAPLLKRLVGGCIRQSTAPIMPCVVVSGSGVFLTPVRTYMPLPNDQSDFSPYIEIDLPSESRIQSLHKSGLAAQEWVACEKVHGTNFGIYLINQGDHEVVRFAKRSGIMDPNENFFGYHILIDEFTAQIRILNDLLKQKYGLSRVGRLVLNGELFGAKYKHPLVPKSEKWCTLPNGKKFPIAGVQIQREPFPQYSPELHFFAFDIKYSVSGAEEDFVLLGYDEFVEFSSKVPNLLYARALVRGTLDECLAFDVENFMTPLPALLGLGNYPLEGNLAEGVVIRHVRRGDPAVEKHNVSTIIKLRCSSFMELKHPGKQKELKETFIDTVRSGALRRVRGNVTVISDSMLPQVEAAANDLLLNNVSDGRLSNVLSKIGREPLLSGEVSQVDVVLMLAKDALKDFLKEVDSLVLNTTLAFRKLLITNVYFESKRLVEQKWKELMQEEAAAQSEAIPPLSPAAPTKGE

Compound: CN(C)c1ccc(/N=C/C=C2/N(C)c3ccccc3C2(C)C)cc1
- EC50 [1]: 39 µM (active)
- CC50 [2]: 100 µM (active)
- IC50 [3]: 44.9 µM (active)
- IC50 [4]: 20.6 µM (active)
- EC50 [5]: > 100 µM (active)
- IC50 (Nonstructural protein 1): 16.1 µM (active)
- EC50 [6]: 39 µM (active)
- CC50 [7]: 17.5 µM (active)

Compound: N#C[C@@H]1[C@H](c2ccc(C3=CCCCC3)cc2)[C@@H](CO)N1C(=O)NC1CCCC1
- AC50 [8]: 9.32 µM (active)
- AC50 [9]: 0.409 µM (active)
- AC50 [10]: 62.5 µM (active)
- AC50 [11]: > 39 µM (inactive)
- AC50 [12]: 0.549 µM (active)
- AC50 [13]: 0.399 µM (active)
- AC50 [14]: 0.42 µM (active)

Compound: COC(=O)C1=C(C)N(Cc2ccccc2C(F)(F)F)C(NCc2ccc(C(F)(F)F)cc2)=NC1c1ccccc1 (stereo unspecified)
- IC50 [15]: > 96.6 µM (inactive)
